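GI50 marks 50% less growth. Definition used: TGI = concentration required for complete inhibition of growth.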
Assays:
Assay in all cases: inhibition of tumour cell growth, NCI panel, 384-well format
NCI-H23 lung = system: NCI-H23 lung
MALME-3M melanoma = system: MALME-3M melanoma
COLO 205 colon = system: COLO 205 colon
MDA-MB-468 breast = system: MDA-MB-468 breast
EKVX NSCLC = system: EKVX NSCLC
OVCAR-5 ovarian = system: OVCAR-5 ovarian
HS 578T breast = system: HS 578T breast
SK-OV-3 ovarian = system: SK-OV-3 ovarian
DU-145 prostate = system: DU-145 prostate
NCI-H226 lung = system: NCI-H226 lung
PC-3 prostate = system: PC-3 prostate
SF-295 CNS = system: SF-295 CNS
HCT-116 colon = system: HCT-116 colon
SNB-75 CNS = system: SNB-75 CNS
NCI-H522 lung = system: NCI-H522 lung
RPMI-8226 leukemia = system: RPMI-8226 leukemia
A498 renal = system: A498 renal
HCC-2998 colon = system: HCC-2998 colon
UACC-257 melanoma = system: UACC-257 melanoma
TK-10 renal = system: TK-10 renal
HOP-62 NSCLC = system: HOP-62 NSCLC
SF-539 CNS = system: SF-539 CNS
MDA-MB-435 melanoma = system: MDA-MB-435 melanoma
U251 glioblastoma = system: U251 glioblastoma
ACHN renal = system: ACHN renal
OVCAR-8 ovarian = system: OVCAR-8 ovarian
MOLT-4 leukemia = system: MOLT-4 leukemia
NCI/ADR-RES ovarian = system: NCI/ADR-RES ovarian
LOX IMVI melanoma = system: LOX IMVI melanoma
OVCAR-4 ovarian = system: OVCAR-4 ovarian
NCI-H322M lung = system: NCI-H322M lung
HT29 colon = system: HT29 colon
NCI-H460 NSCLC = system: NCI-H460 NSCLC
MDA-MB-231 breast = system: MDA-MB-231 breast
SK-MEL-28 melanoma = system: SK-MEL-28 melanoma
T-47D breast = system: T-47D breast
UACC-62 melanoma = system: UACC-62 melanoma
KM12 colon = system: KM12 colon
A549 NSCLC = system: A549 NSCLC
MCF7 breast = system: MCF7 breast
M14 melanoma = system: M14 melanoma
SF-268 CNS = system: SF-268 CNS
SN12C renal = system: SN12C renal
HCT-15 colon = system: HCT-15 colon
OVCAR-3 ovarian = system: OVCAR-3 ovarian
SNB-19 CNS = system: SNB-19 CNS
HOP-92 NSCLC = system: HOP-92 NSCLC
IGROV1 ovarian = system: IGROV1 ovarian
BT-549 breast = system: BT-549 breast
CAKI-1 renal = system: CAKI-1 renal
RXF 393 renal = system: RXF 393 renal
SR leukemia = system: SR leukemia
SK-MEL-5 melanoma = system: SK-MEL-5 melanoma

In the case of `COc1ccc(COc2cc3oc(=O)c4cc(C(C)O)ccc4c3cc2OC)cc1` (stereo unspecified), the GI50 (NCI-H23 lung) is reported as 11.9 µM, the TGI (NCI-H23 lung) is reported as 36.9 µM and the GI50 (MALME-3M melanoma) is reported as 15.8 µM. It also gave a TGI (MALME-3M melanoma) greater than 100 µM, a GI50 (COLO 205 colon) greater than 100 µM and a TGI (COLO 205 colon) greater than 100 µM. The GI50 (MDA-MB-468 breast) was 4.9 µM, the TGI (MDA-MB-468 breast) was 25.2 µM and the GI50 (EKVX NSCLC) was 12.2 µM. For the same molecule, the TGI (EKVX NSCLC) was 43.2 µM, the GI50 (OVCAR-5 ovarian) was 61.2 µM and the TGI (OVCAR-5 ovarian) was greater than 100 µM. For the same molecule, the GI50 (HS 578T breast) was 5.56 µM, the TGI (HS 578T breast) was 19.3 µM and the GI50 (SK-OV-3 ovarian) was 3.89 µM. The TGI (SK-OV-3 ovarian) was 21.2 µM, the GI50 (DU-145 prostate) was 41.6 µM and the TGI (DU-145 prostate) was greater than 100 µM. It also gave a GI50 (NCI-H226 lung) of 15.2 µM, a TGI (NCI-H226 lung) of 33.8 µM and a GI50 (PC-3 prostate) of 24.9 µM. It also gave a TGI (PC-3 prostate) of 93.1 µM, a GI50 (SF-295 CNS) of 10.4 µM and a TGI (SF-295 CNS) of 30.6 µM. It also gave a GI50 (HCT-116 colon) of 9.41 µM, a TGI (HCT-116 colon) greater than 100 µM and a GI50 (SNB-75 CNS) of 6.65 µM. It also gave a TGI (SNB-75 CNS) of 20.3 µM, a GI50 (NCI-H522 lung) of 5.04 µM and a TGI (NCI-H522 lung) of 16.4 µM. For the same molecule, the GI50 (RPMI-8226 leukemia) was 16.3 µM, the TGI (RPMI-8226 leukemia) was greater than 100 µM and the GI50 (A498 renal) was 12.2 µM. It also gave a TGI (A498 renal) of 35 µM, a GI50 (HCC-2998 colon) of 14.6 µM and a TGI (HCC-2998 colon) greater than 100 µM. The GI50 (UACC-257 melanoma) was 24.3 µM, the TGI (UACC-257 melanoma) was 94.6 µM and the GI50 (TK-10 renal) was 10.5 µM. The TGI (TK-10 renal) was 25.6 µM, the GI50 (HOP-62 NSCLC) was 8.11 µM and the TGI (HOP-62 NSCLC) was 24.5 µM. For the same molecule, the GI50 (SF-539 CNS) was 7.79 µM, the TGI (SF-539 CNS) was 20.6 µM and the GI50 (MDA-MB-435 melanoma) was 2.09 µM. The TGI (MDA-MB-435 melanoma) was 4.71 µM, the GI50 (U251 glioblastoma) was 7.43 µM and the TGI (U251 glioblastoma) was 24.8 µM. The GI50 (ACHN renal) was 23 µM, the TGI (ACHN renal) was 61.2 µM and the GI50 (OVCAR-8 ovarian) was 12.6 µM. The TGI (OVCAR-8 ovarian) was 54.2 µM, the GI50 (MOLT-4 leukemia) was 5.6 µM and the TGI (MOLT-4 leukemia) was greater than 100 µM. It also gave a GI50 (NCI/ADR-RES ovarian) of 4.8 µM, a TGI (NCI/ADR-RES ovarian) of 59.4 µM and a GI50 (LOX IMVI melanoma) of 17 µM. For the same molecule, the TGI (LOX IMVI melanoma) was greater than 100 µM, the GI50 (OVCAR-4 ovarian) was 3.41 µM and the TGI (OVCAR-4 ovarian) was 12.3 µM. For the same molecule, the GI50 (NCI-H322M lung) was 20.4 µM, the TGI (NCI-H322M lung) was 71.4 µM and the GI50 (HT29 colon) was 6.91 µM. The TGI (HT29 colon) was greater than 100 µM, the GI50 (NCI-H460 NSCLC) was 5.65 µM and the TGI (NCI-H460 NSCLC) was 85.9 µM. The GI50 (MDA-MB-231 breast) was 20.3 µM, the TGI (MDA-MB-231 breast) was 77.5 µM and the GI50 (SK-MEL-28 melanoma) was 55.3 µM. The TGI (SK-MEL-28 melanoma) was greater than 100 µM, the GI50 (T-47D breast) was 10.6 µM and the TGI (T-47D breast) was 61.5 µM. For the same molecule, the GI50 (UACC-62 melanoma) was 8.49 µM, the TGI (UACC-62 melanoma) was 22.8 µM and the GI50 (KM12 colon) was 8.27 µM. It also gave a TGI (KM12 colon) greater than 100 µM, a GI50 (A549 NSCLC) of 18.6 µM and a TGI (A549 NSCLC) greater than 100 µM. The GI50 (MCF7 breast) was 5.21 µM, the TGI (MCF7 breast) was 22.2 µM and the GI50 (M14 melanoma) was 8.95 µM. The TGI (M14 melanoma) was greater than 100 µM, the GI50 (SF-268 CNS) was 4.6 µM and the TGI (SF-268 CNS) was 16 µM. The GI50 (SN12C renal) was 20 µM, the TGI (SN12C renal) was 90.1 µM and the GI50 (HCT-15 colon) was 3.57 µM. It also gave a TGI (HCT-15 colon) greater than 100 µM, a GI50 (OVCAR-3 ovarian) of 10.1 µM and a TGI (OVCAR-3 ovarian) of 24.7 µM. For the same molecule, the GI50 (SNB-19 CNS) was 7.73 µM, the TGI (SNB-19 CNS) was 20.8 µM and the GI50 (HOP-92 NSCLC) was 11.3 µM. The TGI (HOP-92 NSCLC) was 30.1 µM, the GI50 (IGROV1 ovarian) was 15.3 µM and the TGI (IGROV1 ovarian) was 35.7 µM. The GI50 (BT-549 breast) was 6.81 µM, the TGI (BT-549 breast) was 20.5 µM and the GI50 (CAKI-1 renal) was 18.6 µM. The TGI (CAKI-1 renal) was 60.8 µM, the GI50 (RXF 393 renal) was 5.55 µM and the TGI (RXF 393 renal) was 19.5 µM. The GI50 (SR leukemia) was 1.87 µM, the TGI (SR leukemia) was 5.69 µM and the GI50 (SK-MEL-5 melanoma) was 3.62 µM. The TGI (SK-MEL-5 melanoma) was 12.5 µM.
